Experimental data reported in patent US11865126B2, “Method for treating anxiety disorders, headache disorders, and eating disorders with psilocybin” (priority 2019, dated 2024).

Test system: healthy subjects
Experiment: Phase 1 healthy volunteer study, single oral dose: treatment-emergent adverse events
Format: in vivo, human
Method: A Phase 1 randomized, double-blind, placebo-controlled study to evaluate the effect of psilocybin on cognitive and emotional processing as compared to placebo in healthy volunteers was conducted. The study investigated the short-term (Day 7) and long-term (Day 28) effects of moderate (10 mg) and high doses (25 mg) of psilocybin on key domains of cognition, such as episodic memory, attention, working and spatial memory, social cognition and elements of executive function, including cognitive flexibility.
90 healthy subjects were studied. Approximately 50% of the subjects were psilocybin-naïve. For subjects with prior psilocybin experience, the last exposure was at least 1 year prior to the signing of the Informed Consent Form (ICF). Approximately 50% of the subjects were female. Subjects were stratified by sex and age (18-35 years old; >35 years old).
Each subject was assigned 1 treatment bottle containing 5 capsules packaged in a double-blind fashion, depending on the randomized treatment arm, the bottle contained one of the following: • a. Psilocybin 10 mg: 2×5-mg oral psilocybin capsules plus 3× placebo capsules • b. Psilocybin 25 mg: 5×5-mg oral psilocybin capsules • c. Placebo: 5× placebo capsules
Each 5-mg oral psilocybin capsule comprised 5 mg crystalline psilocybin in the form of Polymorph A, 12.5 mg of SMCC 50, 79.5 mg of SMCC 90, 1 mg sodium starch glycolate, 1 mg colloidal silicon dioxide, and 1 mg sodium stearyl fumarate
Adverse events: Throughout the course of the study, all AEs were monitored and recorded. Each AE was classified according to the following criteria: • i. […] Moderate: The AE produces some impairment of functioning, but is not hazardous to the subject's health. • iii. Severe: The AE produces significant impairment of functioning or incapacitation and is a definite hazard to the subject's health.
Selected Adverse Events of included: • (a) Euphoric mood • (b) Dissociative disorder • (c) Hallucination • (d) Psychotic disorder • (e) Cognitive disorder • (f) Disturbance in attention • (g) Altered mood • (h) Impairment of psychomotor skills • (i) Inappropriate affect • (j) Overdose • (k) Intentional product misuse • (l) Illusion
For example, drug-induced hepatitis that resolved without evidence of hepatic failure would not be considered life threatening even though drug-induced hepatitis can be fatal. • (c) Inpatient hospitalization or prolongation of existing hospitalization. • (d) Persistent or significant disability/incapacity. • (e) Congenital anomaly/birth defect in the offspring of a subject who received psilocybin. • (f) Other: Important medical events that may not result in death, be life-threatening, or require hospitalization, may be considered an SAE when, based upon appropriate medical judgment, they may jeopardize the subject and may require medical or surgical intervention to prevent one of the outcomes listed in this definition. […] Visits:
Visit 3 (V3): Drug Administration (Day 0): The subject was asked to eat a light breakfast at least two hours prior to coming to the clinic for study drug administration. On Day 0 (V3), the subject underwent the SSTS, had vital signs obtained, medications reviewed, AEs recorded and eligibility reviewed prior to being randomized to study drug. The study drug was administered to up to six subjects simultaneously in individual beds separated by a curtain. The subject was invited to put on eyeshades and headphones, lie down and listen to calming music for the rest of the session (six hours). The subject was supported 1:1 with a chaperone and supervised by the study psychiatrist and lead therapist.
Recording of adverse events and prior/concomitant medication was performed at each visit.
During administration of psilocybin, each subject received one on one support from a trained assisting therapist and each dosing session was supervised by a study psychiatrist and a lead therapist. […]

CN(C)CCc1c[nH]c2cccc(OP(=O)(O)O)c12 [psilocybin]
Nervous system disorders, worst severity Moderate: Events (25 mg): 10
Nervous system disorders, worst severity Severe: Events (25 mg): 1
Nervous system disorders: Events (25 mg): 43
Paraesthesia, worst severity Mild: Events (25 mg): 3
Paraesthesia, worst severity Mild: N (%) (25 mg): 3 (10.0)
Paraesthesia, worst severity Moderate: Events (25 mg): 1
Paraesthesia, worst severity Severe: Events (25 mg): 0
Paraesthesia, worst severity Severe: N (%) (25 mg): 0
Paraesthesia: Events (25 mg): 4
Psychiatric disorders, worst severity Mild: Events (25 mg): 5
Psychiatric disorders, worst severity Moderate: Events (25 mg): 45
Psychiatric disorders, worst severity Severe: Events (25 mg): 27
Psychiatric disorders, worst severity Severe: N (%) (25 mg): 9 (30.0)
Respiratory, thoracic and mediastinal disorders: Events (25 mg): 3
Respiratory, thoracic and mediastinal disorders: N (%) (25 mg): 3 (10.0)
Somatic hallucination, worst severity Mild: Events (25 mg): 2
Somatic hallucination, worst severity Moderate: Events (25 mg): 2
Somatic hallucination, worst severity Severe: Events (25 mg): 2
Somatic hallucination: Events (25 mg): 6
Tension headache, worst severity Mild: Events (25 mg): 4
Tension headache, worst severity Moderate: Events (25 mg): 2
Tension headache, worst severity Severe: Events (25 mg): 0
Tension headache, worst severity Severe: N (%) (25 mg): 0
Tension headache: Events (25 mg): 6
Tension headache: N (%) (25 mg): 6 (20.0)
Time perception altered, worst severity Mild: Events (25 mg): 2
Time perception altered, worst severity Moderate: Events (25 mg): 4
Time perception altered, worst severity Severe: Events (25 mg): 0
Time perception altered, worst severity Severe: N (%) (25 mg): 0
Time perception altered: Events (25 mg): 6
Time perception altered: N (%) (25 mg): 6 (20.0)
Reported 'Mood altered' events: Being less judgmental (25 mg psilocybin (n = 30)): 0
Reported 'Mood altered' events: Calm (25 mg psilocybin (n = 30)): 0
Reported 'Mood altered' events: Clarity of thought (25 mg psilocybin (n = 30)): 1
Reported 'Mood altered' events: Contemplative state (25 mg psilocybin (n = 30)): 1
Reported 'Mood altered' events: Feeling more moody/sensitive (25 mg psilocybin (n = 30)): 0
Reported 'Mood altered' events: Feeling of adrenaline release (25 mg psilocybin (n = 30)): 0
Reported 'Mood altered' events: Feeling rested (25 mg psilocybin (n = 30)): 0
Reported 'Mood altered' events: Increased compassion (25 mg psilocybin (n = 30)): 1
Reported 'Mood altered' events: Increased creativity (25 mg psilocybin (n = 30)): 1
Reported 'Mood altered' events: Increased empathy (25 mg psilocybin (n = 30)): 2
Reported 'Mood altered' events: Increased sense of connectedness (25 mg psilocybin (n = 30)): 1
Reported 'Mood altered' events: Increased wit (25 mg psilocybin (n = 30)): 0
Reported 'Mood altered' events: Introspection (25 mg psilocybin (n = 30)): 8
Reported 'Mood altered' events: Laughter (25 mg psilocybin (n = 30)): 1
Reported 'Mood altered' events: More socially upbeat (25 mg psilocybin (n = 30)): 1
Reported 'Mood altered' events: Negative mood (25 mg psilocybin (n = 30)): 0
Reported 'Mood altered' events: Reflections (25 mg psilocybin (n = 30)): 4
Reported 'Mood altered' events: Saw themselves from a new perspective (25 mg psilocybin (n = 30)): 1
Reported 'Mood altered' events: Sense of oneness (25 mg psilocybin (n = 30)): 2
Reported 'Mood altered' events: Sense of openness (25 mg psilocybin (n = 30)): 0
Reported 'Mood altered' events: Unusual appreciation of music (25 mg psilocybin (n = 30)): 0
Any TEAE: % of subjects (25 mg, listed as Psilocybin): (96.7) %
Affect lability, Events (Psilocybin 10 mg (N = 30)): 5
Change in sustained attention, Events (Psilocybin 10 mg (N = 30)): 2
Depressed mood, Events (Psilocybin 10 mg (N = 30)): 1
Dissociative identity disorder, Events (Psilocybin 10 mg (N = 30)): 2
Euphoric mood, Events (Psilocybin 10 mg (N = 30)): 7
Hallucination, Events (Psilocybin 10 mg (N = 30)): 3
Hallucination, N (%) (Psilocybin 10 mg (N = 30)): 3 (10.0)
Hallucination, auditory, Events (Psilocybin 10 mg (N = 30)): 4
Hallucination, gustatory, Events (Psilocybin 10 mg (N = 30)): 1
Hallucination, olfactory, Events (Psilocybin 10 mg (N = 30)): 1
Hallucination, tactile, Events (Psilocybin 10 mg (N = 30)): 2
Hallucination, visual, Events (Psilocybin 10 mg (N = 30)): 20
Illusion, Events (Psilocybin 10 mg (N = 30)): 25
Memory impairment, Events (Psilocybin 10 mg (N = 30)): 1
Mood altered, Events (Psilocybin 10 mg (N = 30)): 23
Nervous system disorders, Events (Psilocybin 10 mg (N = 30)): 2
Nervous system disorders, N (%) (Psilocybin 10 mg (N = 30)): 2 (6.7)
Psychiatric disorders, Events (Psilocybin 10 mg (N = 30)): 104
Psychomotor skills impaired, Events (Psilocybin 10 mg (N = 30)): 1
Selected TEAE (any), Events (Psilocybin 10 mg (N = 30)): 106
Selected TEAE (any), N (%) (Psilocybin 10 mg (N = 30)): 27 (90.0)
Somatic hallucination, Events (Psilocybin 10 mg (N = 30)): 8
Substance-induced psychotic disorder, Events (Psilocybin 10 mg (N = 30)): 0
Substance-induced psychotic disorder, N (%) (Psilocybin 10 mg (N = 30)): 0
Affect lability, Events (Psilocybin 25 mg (N = 30)): 3
Affect lability, N (%) (Psilocybin 25 mg (N = 30)): 3 (10.0)
Change in sustained attention, Events (Psilocybin 25 mg (N = 30)): 0
Change in sustained attention, N (%) (Psilocybin 25 mg (N = 30)): 0
Depressed mood, Events (Psilocybin 25 mg (N = 30)): 2
Dissociative identity disorder, Events (Psilocybin 25 mg (N = 30)): 2
Euphoric mood, Events (Psilocybin 25 mg (N = 30)): 8
Hallucination, Events (Psilocybin 25 mg (N = 30)): 2
Hallucination, auditory, Events (Psilocybin 25 mg (N = 30)): 4
Hallucination, gustatory, Events (Psilocybin 25 mg (N = 30)): 0
Hallucination, gustatory, N (%) (Psilocybin 25 mg (N = 30)): 0
Hallucination, olfactory, Events (Psilocybin 25 mg (N = 30)): 1
Hallucination, tactile, Events (Psilocybin 25 mg (N = 30)): 4
Hallucination, visual, Events (Psilocybin 25 mg (N = 30)): 22
Illusion, Events (Psilocybin 25 mg (N = 30)): 26
Memory impairment, Events (Psilocybin 25 mg (N = 30)): 0
Memory impairment, N (%) (Psilocybin 25 mg (N = 30)): 0
Mood altered, Events (Psilocybin 25 mg (N = 30)): 25
Nervous system disorders, Events (Psilocybin 25 mg (N = 30)): 0
Nervous system disorders, N (%) (Psilocybin 25 mg (N = 30)): 0
Psychiatric disorders, Events (Psilocybin 25 mg (N = 30)): 106
Psychomotor skills impaired, Events (Psilocybin 25 mg (N = 30)): 0
Psychomotor skills impaired, N (%) (Psilocybin 25 mg (N = 30)): 0
Selected TEAE (any), Events (Psilocybin 25 mg (N = 30)): 106
Selected TEAE (any), N (%) (Psilocybin 25 mg (N = 30)): 27 (90.0)
Somatic hallucination, Events (Psilocybin 25 mg (N = 30)): 6
Substance-induced psychotic disorder, Events (Psilocybin 25 mg (N = 30)): 1
